Consider 68 sequences from the supplement of paper PMC11208160.

The series is described as follows: recombinant UMI read abundance after kanamycin selection (control-corrected) (log10(CPM+1)); higher = more efficient recombination; extreme values may be limits of the assay; sequences stand for … in AGTGCAGAGAAAATCGGCCAGTTTTCTCTGCCTGCAGTCCGCATGCCGTGGGACCCCTTGGGTTCTAACCTGTTGCCTAGATTTATGCAGCGGACTGCCTTTCTCCCAAAGTGATAAACCGG…AGGTTGGTTTCACT; site = the 11-nt donor. The essentials: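 Values are reported as log10(CPM+1), obtained by converting sequencing counts to CPM, averaging replicates and scaling by control-derived factors. The counts came from recombinant UMIs amplified by PCR across the donor–target junction. These UMIs came from a pooled Escherichia coli screen of donor and donor-binding-loop pairs for the IS621 bridge recombinase, plated with IPTG (0.07 mM) plus kanamycin or left unselected, in two replicates each.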
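Further: IS621 bridge recombinase in Escherichia coli cells against a fixed T5 target plasmid.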

As for “TAGCTCTCATGGACCGGTTTTCCCGGTAATCCGTATTTGGG (site TAGCTCTCTCC)”, the “recombinant UMI read abundance (log10)” value is 0.00931. For the sequence “TAGGAATCATGGACCGGTTTTCCCGGTAATCCGTATTTGAG (site TAGGAATCTCA)”, the “recombinant UMI read abundance (log10)” value turned out to be 2.32. As for “TAGGAATCATGGACCGGTTTTCCCGGTAATCCGTATTTGAG (site TAGGAATCTCC)”, the figure is 1.84; as for “TAGGAATCATGGACCGGTTTTCCCGGTAATCCGTATTTGAG (site TAGGAATCTCG)”, 1.36.

As for “TAGGAATCATGGACCGGTTTTCCCGGTAATCCGTATTTGAG (site TAGGAATCTCT)”, the “recombinant UMI read abundance (log10)” value was found to be 3.1.

Regarding “TAGGAATCATGGACCGGTTTTCCCGGTAATCCGTATTTGCG (site AAGGAATCTCG)”, the “recombinant UMI read abundance (log10)” value was 2.07.

With “TAGGAATCATGGACCGGTTTTCCCGGTAATCCGTATTTGCG (site CAGGAATCTCG)”, the “recombinant UMI read abundance (log10)” value worked out at 2.3. On to “TAGGAATCATGGACCGGTTTTCCCGGTAATCCGTATTTGCG (site GAGGAATCTCG)”, for which the “recombinant UMI read abundance (log10)” value turned out to be 0. As to “TAGGAATCATGGACCGGTTTTCCCGGTAATCCGTATTTGCG (site TAAGAATCTCG)”, the “recombinant UMI read abundance (log10)” value was found to be 2.05. For “TAGGAATCATGGACCGGTTTTCCCGGTAATCCGTATTTGCG (site TACGAATCTCG)”, the “recombinant UMI read abundance (log10)” value worked out at 1.28. As for “TAGGAATCATGGACCGGTTTTCCCGGTAATCCGTATTTGCG (site TAGAAATCTCG)”, the “recombinant UMI read abundance (log10)” value was 2.39. In the case of “TAGGAATCATGGACCGGTTTTCCCGGTAATCCGTATTTGCG (site TAGCAATCTCG)” it was 1.05; in that of “TAGGAATCATGGACCGGTTTTCCCGGTAATCCGTATTTGCG (site TAGGAAACTCG)”, 1.27; in that of “TAGGAATCATGGACCGGTTTTCCCGGTAATCCGTATTTGCG (site TAGGAACCTCG)”, 0.

As to “TAGGAATCATGGACCGGTTTTCCCGGTAATCCGTATTTGCG (site TAGGAAGCTCG)”, the “recombinant UMI read abundance (log10)” value was determined as 0.419.

Take “TAGGAATCATGGACCGGTTTTCCCGGTAATCCGTATTTGCG (site TAGGAATCTAG)”: the “recombinant UMI read abundance (log10)” value stood at 1.42. With “TAGGAATCATGGACCGGTTTTCCCGGTAATCCGTATTTGCG (site TAGGAATCTCA)”, the “recombinant UMI read abundance (log10)” value amounted to 2.6. As to “TAGGAATCATGGACCGGTTTTCCCGGTAATCCGTATTTGCG (site TAGGAATCTCC)”, the “recombinant UMI read abundance (log10)” value was 1.39. For “TAGGAATCATGGACCGGTTTTCCCGGTAATCCGTATTTGCG (site TAGGAATCTCG)”, the “recombinant UMI read abundance (log10)” value stood at 2.72. Turning to “TAGGAATCATGGACCGGTTTTCCCGGTAATCCGTATTTGCG (site TAGGAATCTCT)”, the “recombinant UMI read abundance (log10)” value turned out to be 2.03. For the sequence “TAGGAATCATGGACCGGTTTTCCCGGTAATCCGTATTTGCG (site TAGGAATCTGG)”, the “recombinant UMI read abundance (log10)” value was 2.08. Consider “TAGGAATCATGGACCGGTTTTCCCGGTAATCCGTATTTGCG (site TAGGAATCTTG)”, for which the “recombinant UMI read abundance (log10)” value was found to be 1.85.

On to “TAGGAATCATGGACCGGTTTTCCCGGTAATCCGTATTTGCG (site TAGGACTCTCG)”, for which the “recombinant UMI read abundance (log10)” value worked out at 0.892. Regarding “TAGGAATCATGGACCGGTTTTCCCGGTAATCCGTATTTGCG (site TAGGAGTCTCG)”, the “recombinant UMI read abundance (log10)” value came to 1.94. As to “TAGGAATCATGGACCGGTTTTCCCGGTAATCCGTATTTGCG (site TAGGATTCTCG)”, the “recombinant UMI read abundance (log10)” value was 1.39.

On to “TAGGAATCATGGACCGGTTTTCCCGGTAATCCGTATTTGCG (site TAGGCATCTCG)”, for which the “recombinant UMI read abundance (log10)” value was determined as 1.14. In the case of “TAGGAATCATGGACCGGTTTTCCCGGTAATCCGTATTTGCG (site TAGGGATCTCG)” it was 1.43.

As for “TAGGAATCATGGACCGGTTTTCCCGGTAATCCGTATTTGCG (site TAGGTATCTCG)”, the “recombinant UMI read abundance (log10)” value amounted to 1.63. As for “TAGGAATCATGGACCGGTTTTCCCGGTAATCCGTATTTGCG (site TAGTAATCTCG)”, the “recombinant UMI read abundance (log10)” value is 1.71. Take “TAGGAATCATGGACCGGTTTTCCCGGTAATCCGTATTTGCG (site TATGAATCTCG)”: the “recombinant UMI read abundance (log10)” value was 1.63. As for “TAGGAATCATGGACCGGTTTTCCCGGTAATCCGTATTTGCG (site TCGGAATCTCG)”, the figure is 1.51. Turning to “TAGGAATCATGGACCGGTTTTCCCGGTAATCCGTATTTGCG (site TGGGAATCTCG)”, the “recombinant UMI read abundance (log10)” value amounted to 1.02.

For the sequence “TAGGAATCATGGACCGGTTTTCCCGGTAATCCGTATTTGCG (site TTGGAATCTCG)”, the “recombinant UMI read abundance (log10)” value worked out at 1.47.

As to “TAGGAATCATGGACCGGTTTTCCCGGTAATCCGTATTTGCT (site TAGGAATCTAG)”, the “recombinant UMI read abundance (log10)” value is 2.58. As for “TAGGAATCATGGACCGGTTTTCCCGGTAATCCGTATTTGCT (site TAGGAATCTCG)”, the “recombinant UMI read abundance (log10)” value worked out at 1.1. “TAGGAATCATGGACCGGTTTTCCCGGTAATCCGTATTTGCT (site TAGGAATCTGG)”: the “recombinant UMI read abundance (log10)” value is 2.28.

In the case of “TAGGAATCATGGACCGGTTTTCCCGGTAATCCGTATTTGCT (site TAGGAATCTTG)”, the “recombinant UMI read abundance (log10)” value turned out to be 1.5. As for “TAGGATGCATGGACCGGTTTTCCCGGTAATCCGTATTTGGC (site TAGGATGCTGC)”, the “recombinant UMI read abundance (log10)” value is 3.08.

For “TAGGCAACATGGACCGGTTTTCCCGGTAATCCGTATTTGAA (site TAGGCAACTTT)”, the “recombinant UMI read abundance (log10)” value came to 0.0147.

Regarding “TAGGGACCATGGACCGGTTTTCCCGGTAATCCGTATTTGGT (site TAGGGACCTAC)”, the “recombinant UMI read abundance (log10)” value amounted to 0.00346. With “TAGGTAACATGGACCGGTTTTCCCGGTAATCCGTATTTGAC (site TAGGTAACTGT)”, the “recombinant UMI read abundance (log10)” value stood at 2.17. For “TAGGTGTCATGGACCGGTTTTCCCGGTAATCCGTATTTGCA (site TAGGTGTCTTG)”, the “recombinant UMI read abundance (log10)” value came out at 3.29. Take “TAGGTTCCATGGACCGGTTTTCCCGGTAATCCGTATTTGCC (site TAGGTTCCTGG)”: the “recombinant UMI read abundance (log10)” value amounted to 1.32. In the case of “TAGTAAGCATGGACCGGTTTTCCCGGTAATCCGTATTTGTA (site TAGTAAGCTTA)”, the “recombinant UMI read abundance (log10)” value is 2.8. As to “TAGTACCCATGGACCGGTTTTCCCGGTAATCCGTATTTGGT (site TAGTACCCTAC)”, the “recombinant UMI read abundance (log10)” value was found to be 0.271.

Take “TAGTACTCATGGACCGGTTTTCCCGGTAATCCGTATTTGCA (site TAGTACTCTTG)”: the “recombinant UMI read abundance (log10)” value was 2.61. With “TAGTATACATGGACCGGTTTTCCCGGTAATCCGTATTTGAC (site TAGTATACTGT)”, the “recombinant UMI read abundance (log10)” value was found to be 2.58.

In the case of “TAGTATACATGGACCGGTTTTCCCGGTAATCCGTATTTGCA (site TAGAATACTTG)”, the “recombinant UMI read abundance (log10)” value was determined as 1.23.

For the sequence “TAGTATACATGGACCGGTTTTCCCGGTAATCCGTATTTGCA (site TAGCATACTTG)”, the “recombinant UMI read abundance (log10)” value amounted to 1.11. “TAGTATACATGGACCGGTTTTCCCGGTAATCCGTATTTGCA (site TAGGATACTTG)”: the “recombinant UMI read abundance (log10)” value was determined as 0.222. Turning to “TAGTATACATGGACCGGTTTTCCCGGTAATCCGTATTTGCA (site TAGTATACTTG)”, the “recombinant UMI read abundance (log10)” value stood at 2.25. In the case of “TAGTATCCATGGACCGGTTTTCCCGGTAATCCGTATTTGCA (site TAGTATCCTTG)”, the “recombinant UMI read abundance (log10)” value was 0.736. Regarding “TAGTGATCATGGACCGGTTTTCCCGGTAATCCGTATTTGCA (site TAGTGATCTTG)”, the “recombinant UMI read abundance (log10)” value came out at 3.02. Turning to “TAGTGGGCATGGACCGGTTTTCCCGGTAATCCGTATTTGTC (site TAGTGGGCTGA)”, the “recombinant UMI read abundance (log10)” value turned out to be 2.31. For the sequence “TAGTTGCCATGGACCGGTTTTCCCGGTAATCCGTATTTGCC (site TAGTTGCCTGG)”, the “recombinant UMI read abundance (log10)” value turned out to be 0. Turning to “TAGTTGGCATGGACCGGTTTTCCCGGTAATCCGTATTTGTG (site TAATTGGCTCA)”, the “recombinant UMI read abundance (log10)” value turned out to be 0.0238. As for “TAGTTGGCATGGACCGGTTTTCCCGGTAATCCGTATTTGTG (site TACTTGGCTCA)”, the figure is 0.0102; as for “TAGTTGGCATGGACCGGTTTTCCCGGTAATCCGTATTTGTG (site TAGTTGGCTCA)”, 0.476. As for “TAGTTGGCATGGACCGGTTTTCCCGGTAATCCGTATTTGTG (site TATTTGGCTCA)”, the figure is 0.00327; as for “TAGTTTCCATGGACCGGTTTTCCCGGTAATCCGTATTTGAA (site TAGTTTCCTTT)”, 0.228; as for “TAGTTTGCATGGACCGGTTTTCCCGGTAATCCGTATTTGCC (site TAGTTTGCTGG)”, 0. Turning to “TATACCCCATGGACCGGTTTTCCCGGTAATCCGTATTTGAC (site TATACCCCTGT)”, the “recombinant UMI read abundance (log10)” value worked out at 1.5. For the sequence “TATACTACATGGACCGGTTTTCCCGGTAATCCGTATTTGTG (site TATACTACTCA)”, the “recombinant UMI read abundance (log10)” value amounted to 0.195.

Turning to “TATATCGCATGGACCGGTTTTCCCGGTAATCCGTATTTGAT (site TATATCGCTAT)”, the “recombinant UMI read abundance (log10)” value is 0.63. As to “TATATGGCATGGACCGGTTTTCCCGGTAATCCGTATTTGGT (site TATATGGCTAC)”, the “recombinant UMI read abundance (log10)” value stood at 0.39. On to “TATATGGCATGGACCGGTTTTCCCGGTAATCCGTATTTGTT (site TATATGGCTAA)”, for which the “recombinant UMI read abundance (log10)” value stood at 0.36. For “TATCAGGCATGGACCGGTTTTCCCGGTAATCCGTATTTGTG (site TATCAGGCTCA)”, the “recombinant UMI read abundance (log10)” value turned out to be 0.113. On to “TATCATCCATGGACCGGTTTTCCCGGTAATCCGTATTTGGT (site TATCATCCTAC)”, for which the “recombinant UMI read abundance (log10)” value came to 0.0117.
